# Experimental data published in US20160175249A1, “Liposomes Containing Oligopeptide Fragments of Myelin Basic Protein, a Pharmaceutical Composition and a Method for Treatment of Multiple Sclerosis” (LIPOXEN TECHNOLOGIES LIMITED, priority 2009, published 2016).
# “Also recorded” adds a separate entry of the source.
# Experiments:
# [1] = tested on: experimental allergic encephalomyelitis (EAE) in DA rats; assay: Treatment of EAE in DA rats with liposomally encapsulated MBP peptides (Example 5); assay type: in vivo; details: 150 μg per animal daily subdermally days 6-11, score 0-5
# Method: To induce experimental allergic encephalomyelitis (EAE) in DA rats having a mass of 220-250 g ([…]), 10 μg of myelin basic protein encephalogenic peptide fragment ARTTHYGSLPQKSQRSQ (SEQ ID NO:4; Anaspec, US) emulsified in Freund's complete adjuvant (Difco, US) at a concentration of 10% (m/v) was subdermally injected into the forepaw. The rats were weighted and monitored for EAE neurological symptoms daily. The EAE symptom profile of each rate was scored according to the following scale: (0)—absence of EAE symptoms; (1)—decrease in tail tonicity; (2)—decrease in righting reflex; (3)—paresis; (4)—full paralysis; and (5)—agony or death. Intermediary symptoms were scored by increasing or decreasing the value by 0.5 units. Six days after EAE induction, animals were randomly distributed into several groups (12 animals each).
# Between days six and eleven after induction, rats in each respective group were subdermally injected with the liposomal preparation described in Example 2 (emulsified in phosphate saline solution, pH 7.4), a positive control preparation of glatiramer acetate (GA; copaxone, Teva Pharmaceutical Industries Ltd, Israel), a prototype peptide: DENPVVIIFFKNIVTPRT (SEQ ID NO:5), or a buffered phosphate saline solution (pH 7.4) placebo. The peptide, Glatiramer acetate, and liposomal preparations were formulated immediately prior to administration using buffered phosphate saline solution (pH 7.4). 0.1 mL of each composition was administered daily at a concentration of 150 μg per animal.
# [2] = tested on: experimental autoimmune encephalomyelitis (EAE) in DA rats; assay: EAE in DA rats treated with MBP peptides in mannosylated SUV liposomes (Example 10); assay type: in vivo
# Method: All animal studies were carried out in animal facilities of Assaf Harofeh Medical Center (Zerifin, Israel) using standard approved practices for animal care. Induction of EAE was performed in 8-9 weeks Dark Agouti (DA) female rats. Briefly, rats were injected intradermally at the base of the tail with a total volume of 200 μl of inoculum, containing […] of MBP(63-81) (ANASPEC), in saline mixed (1:1) with CFA, (incomplete Freund's adjuvant (IFA), Sigma), and 1 mg MT (strain H37 RA; Difco Laboratories, Detroit, Mich.). Animals developing symptoms of MS were included to the study. Rats were treated with different liposomes formulations (Table 3), copaxone, or placebo (vehicle) under similar conditions for 6 days. All formulations were administrated by one subcutaneous injection per day. Animals were followed up till day 28th post EAE induction. Clinical signs score was performed daily during all study periods. Score gradation was the following: 0—Normal 1—tail weakness, 2—hind leg weakness or paralysis, 3—hind leg paralysis, dragging hind limbs, 4—complete paralysis, unable to move, 5—death.
# Liposomes were assembled from a mixture of egg phosphatidylcholine (PC) and one molar percent mannosylated DOG (ManDOG) (Durova OM, supra). Assembly of SUV liposomes was performed as illustrated in FIG. 3: (i) formation of irregular lipid layers during evaporation of organic solvent, followed by re-hydration leading to the multi-layer multilamellar vesicle (MLV) liposomes formation; (ii) high-pressure homogenization resulting in formation of empty SUV; (iii) freeze drying of SUV liposomes with peptides—at this stage peptides are located between collapsed SUV liposomes; and (iv) encapsulation of peptides during second re-hydration into the SUV liposomes with an average diameter of approximately 60-100 nm, containing 1.0% mannose residues on their surface. Four formulations were used for this study: each B cell epitope MBP peptide (MBP1, MBP2, and MBP3) individually and a 1:1:1 mixture (by mass) of all three peptides.
# Small unilamellar vesicles (SUV) were prepared from egg phosphatidylcholine (PC) and mannosylated DOG (Espuelas S. et al., Synthesis of an amphiphilic tetraantennary mannosyl conjugate and incorporation into liposome carriers, 2003 Bioorg Med Chem Lett., August 4; 13(15):2557-60, the contents of which are hereby incorporated by reference in their entirety for all purposes) (1:100 molar ratio) by high pressure homogenization (Durova OM, supra). Briefly, lipid mixture (100 mg/ml) in CHCl3 was dried under vacuum, further re-suspended in Milli-Q water to a final lipid concentration 50 mg/ml, followed by high-pressure homogenization (20,000 psi). Resulting SUV were mixed with peptides (lipid to peptide ratio 330:1) together with excess sugar (lactose to lipid ratio 3:1) with subsequent freeze-drying. Following rehydration under controlled conditions, the resulting SUV liposomes were washed by centrifugation to remove non-incorporated materials. The washed pellets were re-suspended in PBS to the required dose volume. Peptide incorporation was estimated on the basis of reversed-phase HPLC using linear gradient of acetonitrile applied on C18 column. The z-average diameter and zeta potential of liposomes were measured on a Brookhaven ZetaPlus zetasizer at 25° C. by diluting […] of the dispersion to the required volume with 1 mM PBS or appropriate media.
# To test the therapeutic potential of the four formulations, DA rates presenting with induced EAE were subcutaneously injected with one of the four mannosylated liposomal formulations, copaxone (positive control), free (un-encapsulated) MBPI peptide (negative control), and empty mannosylated liposomes (vehicle control; Table 3).
# Treatment of each rat was initiated at the first sign of EAE clinical manifestation. […]
substance,measurement,setting,value
glatiramer acetate [copaxone],"Evaluation of EAE symptom intensity, average",[1]; day 0 after EAE induction,0.00
same,"Evaluation of EAE symptom intensity, average",[1]; day 1 after EAE induction,0.00
same,"Evaluation of EAE symptom intensity, average",[1]; day 2 after EAE induction,0.00
same,"Evaluation of EAE symptom intensity, average",[1]; day 3 after EAE induction,0.00
same,"Evaluation of EAE symptom intensity, average",[1]; day 4 after EAE induction,0.00
same,"Evaluation of EAE symptom intensity, average",[1]; day 5 after EAE induction,0.00
same,"Evaluation of EAE symptom intensity, average",[1]; day 6 after EAE induction,0.00
same,"Evaluation of EAE symptom intensity, average",[1]; day 7 after EAE induction,0.00
same,"Evaluation of EAE symptom intensity, average",[1]; day 8 after EAE induction,0.50
same,"Evaluation of EAE symptom intensity, average",[1]; day 9 after EAE induction,1.67
same,"Evaluation of EAE symptom intensity, average",[1]; day 10 after EAE induction,2.17
same,"Evaluation of EAE symptom intensity, average",[1]; day 11 after EAE induction,2.25
same,"Evaluation of EAE symptom intensity, average",[1]; day 12 after EAE induction,2.25
same,"Evaluation of EAE symptom intensity, average",[1]; day 13 after EAE induction,2.83
same,"Evaluation of EAE symptom intensity, average",[1]; day 14 after EAE induction,2.75
same,"Evaluation of EAE symptom intensity, average",[1]; day 15 after EAE induction,2.33
same,"Evaluation of EAE symptom intensity, average",[1]; day 16 after EAE induction,2.08
same,"Evaluation of EAE symptom intensity, average",[1]; day 17 after EAE induction,2.17
same,"Evaluation of EAE symptom intensity, average",[1]; day 18 after EAE induction,2.17
same,"Evaluation of EAE symptom intensity, average",[1]; day 19 after EAE induction,1.75
same,"Evaluation of EAE symptom intensity, average",[1]; day 20 after EAE induction,1.67
same,"Evaluation of EAE symptom intensity, average",[1]; day −1 after EAE induction,0.00
same,mean disease score course (FIG. 4),[2]; 6 daily s.c. injections from first clinical sign,EAE amelioration rate similar to treatment with the MBP1/2/3 SUV formulation; also recorded: did not fully recover from EAE after the initial attack
same,Mortality,"[2]; one s.c. injection per day, 6 injections, deaths/N",0/12
same,Median Cumulative Disease Score,"[2]; one s.c. injection per day, 6 injections, doses per Table 3",18.5
same,Median Maximal Disease Score (IQR),"[2]; one s.c. injection per day, 6 injections, doses per Table 3, score 0-5",2 (1.25)^1
